According to paper PMC7459823, “Characterization of Five Novel Anti-MRSA Compounds Identified Using a Whole-Animal Caenorhabditis elegans/Galleria mellonella Sequential-Screening Approach” (Antibiotics, 2020):
In brackets after ≈: the same amount, converted by molar mass. Where two headings read alike, the source gives them in different places.

Experiments:
MKN-28 = assay: MTT cytotoxicity, MKN-28; conditions: MKN-28, 24 hr
Experimental: (§2) Mammalian cell lines HepG2 (hepatic cells), A549 (epithelial cells), and MKN-28 (gastric cells) were used to measure the anti-proliferative properties of test compounds, as described elsewhere [28]. Cells were grown in Dulbecco’s Modified Eagle Medium (DMEM) (Gibco, Waltham, MA, USA) supplemented with 10% Fetal Bovine Serum (FBS) (Gibco, Waltham, MA, USA) and 1% penicillin/streptomycin (Gibco, Waltham, MA, USA) and maintained at 37 °C in 5% CO2. After harvesting, the cells were suspended in DMEM and 100 µL was added to the wells of 96-well plates. The test compounds were serially diluted in serum and antibiotic free DMEM, added to the monolayer of cells, and incubated at 37 °C in 5% CO2 for 24 hr. Percentage survival was calculated by comparison to DMSO-treated vehicle controls. Assays were carried out in triplicate.

[1] = test system: clinical S. aureus isolate BF2; assay: Broth microdilution MIC, clinical S. aureus isolate BF2; type: cell-based; conditions: Staphylococcus aureus
Experimental: (§1) In vitro antibacterial activities were determined using the broth microdilution method. Assays were performed as described in Clinical and Laboratory Standards Institute protocols in triplicate using cation-adjusted Muller–Hinton broth (Becton Dickinson and Company, Franklin Lakes, NJ, USA) in 96-well plates with a total assay volume of 100 µL. Two-fold serial dilutions of test compounds were prepared over the concentration range of 1–64 µg/mL. The bacterial concentration was adjusted to OD600 = 0.06. […] A 10 µL aliquot from each well in the MIC assays was plated onto Muller–Hinton agar (Becton Dickinson and Company, Franklin Lakes, NJ, USA) and incubated overnight at 37 °C. The lowest concentration of compound for which no growth was observed on agar plates was reported as the minimal bactericidal concentration (MBC).

Enterococcus faecium = assay: Broth microdilution MIC, Enterococcus faecium; type: cell-based
Experimental: as §1

MRSA MW2 [2] = assay: Broth microdilution antibacterial susceptibility (MIC/MBC), MRSA MW2; type: cell-based, Staphylococcus aureus
Experimental: as §1

Enterobactor aerogens = assay: Broth microdilution MIC, Enterobactor aerogens; type: cell-based
Experimental: as §1

A549 = assay: MTT cytotoxicity, A549; conditions: A549, 24 hr
Experimental: as §2

Acinetobacter baumannii = assay: Broth microdilution MIC, Acinetobacter baumannii; type: cell-based
Experimental: as §1

[3] = test system: MRSA-MW2 infection of C. elegans; assay: C. elegans–MRSA-MW2 high-throughput screen (Z-score, alive versus dead worms); type: in vivo, Caenorhabditis elegans; conditions: screening concentration 2.86 µg/mL, hits Z > 2
Source text: The five compounds: (4,4′,4″-(4-propyl-[1H]-pyrazole-1,3,5-triyl)trisphenol, PPT; (1S,2S)-2-[2-[[3-(1H-benzimidazol-2-yl)propyl]methylamino]ethyl]-6-fluoro-1,2,3,4-tetrahydro-1-(1-methylethyl)-2- naphthalenyl cyclopropanecarboxylate dihydrochloride, NNC; 4,5,6,7-tetrabromobenzotriazole, TBB; 3-[2-[2-chloro-4-[3-(2,6-dichlorophenyl)-5-(1-methylethyl)-4-isoxazolyl]methoxy]phenyl] ethenyl] benzoic acid, GW4064; and N-(cyclopropylmethoxy)-3,4,5-trifluoro-2-[(4-iodo-2-methylphenyl)amino] benzamide, PD198306) were purchased from Tocris Bioscience at the following levels of purity: PPT: >99.7%, NNC: >98%, TBB: >99%, GW4064: >97%, and PD198306: 98.8%. […] Hits were identified based on Z-scores. Z-scores are calculated from the ratio of alive versus dead worms after treatment with test compounds and represents the number of standard deviations (SD) the test compound differs from the mean using the formula Z = (x − μ)/σ; where x is the raw sample score, μ is the mean of the population and σ is the standard deviation of the population. Samples with Z > 2σ are considered hits.

MRSA MW2 [4] = assay: Sytox green membrane permeabilization; type: cell-based, Staphylococcus aureus; conditions: compounds at 64 µg/mL, monitored over 1 h
Experimental: To determine whether the compounds target bacterial membranes, MRSA MW2 was treated with the compounds and uptake of the membrane-impermeable DNA-binding fluorescent dye Sytox green was monitored over 1 h (Figure 4).
Sytox Green (Life Technologies, Needham, MA, USA) membrane permeabilization assays were performed as previously described. The experiments were carried out in duplicate in 96-well plates. Cells were grown to log phase and were harvested by centrifuging at 3700× g for 5 min. The cells were washed twice with PBS and resuspended to OD600 = 0.2, following which 5 µM Sytox green was added to the cells and the bacteria-dye mixture were incubated in the dark for 30 mins.
Cell suspensions (50 µL) were added to 50 µL of test compounds (64 µg/mL in PBS) and fluorescence intensity was measured (excitation 485 nm, emission 530 nm) periodically over 60 min.

Klebsiella pneumoniae = assay: Broth microdilution MIC, Klebsiella pneumoniae; type: cell-based
Experimental: as §1

[5] = test system: clinical S. aureus isolate BF1; assay: Broth microdilution MIC, clinical S. aureus isolate BF1; type: cell-based; conditions: Staphylococcus aureus
Experimental: as §1

[6] = test system: clinical S. aureus isolate BF4; assay: Broth microdilution MIC, clinical S. aureus isolate BF4; type: cell-based; conditions: Staphylococcus aureus
Experimental: as §1

HepG2 = assay: MTT cytotoxicity, HepG2; conditions: HepG2, 24 hr
Experimental: as §2

[7] = test system: MRSA MW2 infection of Galleria mellonella larvae; assay: G. mellonella–MRSA survival assay; type: in vivo; conditions: larvae infected with MRSA MW2 5 × 10^5 CFU, compound 10 mg/kg 2 h after infection, monitored 120 h; untreated 1 day
Experimental: Larvae were infected with MRSA MW2 (5 × 10^5 CFU) in the left rear proleg, and after two hours, the compounds were introduced separately at 10 mg/kg into the right rear proleg and larvae survival was monitored for 120 h.
Assays were performed as described previously. Briefly, sixteen randomly selected G. mellonella larvae (Vanderhorst, Inc., St. Mary’s, OH, USA) between 300–350 mg were used for each test group. MRSA-MW2 was grown in Tryptic Soy Broth (TSB), washed with phosphate buffered saline (PBS, pH = 7.4), and diluted to OD600 = 0.3 before inoculation into G. mellonella larvae. A 10-μL inoculum was injected into the last left proleg using a 10-μL Hamilton syringe. After 2 h, compounds were administered into the last right proleg and larvae were incubated at 37 °C. G.mellonella survival was monitored for 120 h, and death was confirmed when there was no response. Killing curves and differences in survival were analyzed by the Kaplan–Meier method using GraphPad Prism version 8 (GraphPad Software, La Jolla, CA, USA). Statistical analysis (Kruskal–Wallis test) was carried out using the same program.

Pseudomonas aeruginosa = assay: Broth microdilution MIC, Pseudomonas aeruginosa; type: cell-based
Experimental: as §1

MRSA-MW2 = assay: Checkerboard synergy assay (FIC index); type: cell-based, Staphylococcus aureus; conditions: synergy FIC ≤ 0.5
Experimental: The combination of two antibiotics with different modes of action can reduce bacterial resistance and sometimes even restore clinical efficacy of an antibiotic that has lost effectiveness. The five compounds were tested against MRSA-MW2 in the presence of five clinical antibiotics from different classes (i.e., polymyxin B, gentamycin, erythromycin, doxycycline, and oxacillin).
Antibacterial synergy for combinations of the compounds with each other and with clinical antibiotics (doxycycline, gentamicin, polymyxin-B, oxacillin, and erythromycin) was measured using checkerboard assays. In short, Cultures of MRSA-MW2 were adjusted to OD600 = 0.06 and one compound was arrayed horizontally and other vertically in 96 well plates. The assays were carried out in triplicate, exactly as described for the antibacterial susceptibility assays. The inhibitory effects of compound combinations were evaluated using the Fractional Inhibitory Concentration (FIC) index, derived from the formula:FIC index = FICA + FICB = [A]/MICA + [B]/MICB
MIC of substance A tested in combination /MIC of substance A tested alone + MIC of substance B tested in combination/MIC of substance B tested alone. Synergy is indicated when FIC ≤ 0.5, indifference when 0.5 ≤ FIC ≤ 4, and antagonism when FIC > 4. Experiments were performed in duplicate and report the average FIC index.

[8] = test system: clinical S. aureus isolate BF3; assay: Broth microdilution MIC, clinical S. aureus isolate BF3; type: cell-based; conditions: Staphylococcus aureus
Experimental: as §1

HVA currents = test system: HVA currents; design: method as in PMID 14718587; conditions: INS-1 cells; read-out: IC50 for inhibition of HVA currents; cited from earlier work
Cav3.1 T-type channels = test system: Cav3.1 T-type channels; design: method as in PMID 14718587; conditions: INS-1 cells; read-out: IC50 for inhibition of Cav3.1 T-type channels; cited from earlier work
[9] = Staphylococcus aureus, MRSA MW2, 18 h, 37 °C, read-out: MIC
[10] = Staphylococcus aureus, MRSA MW2, read-out: MBC
[11] = Staphylococcus aureus, stated in text across MRSA MW2 and four clinical S. aureus isolates, read-out: MIC against MRSA MW2 and the clinical isolates
[12] = Enterobactor aerogens, read-out: MIC

Row | MIC ([1]; BF2, read-out: MIC) [µg/mL] | MIC (Enterococcus faecium; read-out: MIC) [µg/mL] | MIC (MRSA MW2 [2]; [9]) [µg/mL] | MIC (Enterobactor aerogens; [12]) [µg/mL] | MIC (Acinetobacter baumannii; read-out: MIC) [µg/mL] | MIC (Klebsiella pneumoniae; read-out: MIC) [µg/mL] | MIC ([5]; BF1, read-out: MIC) [µg/mL] | MIC ([6]; BF4, read-out: MIC) [µg/mL] | MIC (Pseudomonas aeruginosa; read-out: MIC) [µg/mL] | Compound | Eukaryotic cell cytotoxicity (MKN-28) [µg/mL] | MBC (MRSA MW2 [2]; [10]) [µg/mL] | Eukaryotic cell cytotoxicity (A549) [µg/mL] | Z-Score [3] | cellular fluorescence (Sytox green uptake) (MRSA MW2 [4]) | Eukaryotic cell cytotoxicity (HepG2) [µg/mL] | median post-infection survival [7] [days] | Fractional Inhibitory Concentration (FIC) Index (MRSA-MW2; with Doxycycline) | Fractional Inhibitory Concentration (FIC) Index (MRSA-MW2; with Erythromycin) | Fractional Inhibitory Concentration (FIC) Index (MRSA-MW2; with Gentamycin) | Fractional Inhibitory Concentration (FIC) Index (MRSA-MW2; with Oxacillin) | also measured
1 | 4 (≈ 7.37 µM) | 8 (≈ 14.7 µM) | 8 (≈ 14.7 µM) | > 64 | > 64 | > 64 | 4 (≈ 7.37 µM) | 8 (≈ 14.7 µM) | > 64 | CC(C)c1onc(-c2c(Cl)cccc2Cl)c1COc1ccc(C=Cc2cccc(C(=O)O)c2)c(Cl)c1 [GW4064, 3-[2-[2-Chloro-4-[[3-(2,6-dichlorophenyl)-5-(1-methylethyl)-4-isoxazolyl]methoxy]phenyl]ethenyl]benzoic acid] | 8 | > 64 | 16 | 3.28 | no changes in cellular fluorescence | 4 | 2 | 2.06 | 1.0 | 0.5 | 1.0 | MBC (MRSA MW2 [2]; MRSA MW2): >64 µg/mL; MIC (MRSA MW2 [2]; [11]): 4 to 8 µg/mL (≈ 7.37 to 14.7 µM); Fractional Inhibitory Concentration (FIC) Index (MRSA-MW2; with Polymyxin B): 0.75; MIC ([8]; BF3, read-out: MIC): 8 µg/mL (≈ 14.7 µM)
2 | 2 | 8 | 8 | > 64 | > 64 | > 64 | 4 | 4 | > 64 | CC(C)[C@H]1c2ccc(F)cc2CC[C@@]1(CCN(C)CCCc1nc2ccccc2[nH]1)OC(=O)C1CC1.Cl.Cl [NNC, (1S,2S)-2-[2-[[3-(1H-Benzimidazol-2-yl)propyl]methylamino]ethyl]-6-fluoro-1,2,3,4-tetrahydro-1-(1-methylethyl)-2-naphthalenyl cyclopropanecarboxylate dihydrochloride] | 8 | > 64 | 16 | 5.83 | increases in cellular fluorescence | 2 | 2 | 0.75 | 1.0 | 0.75 | 2.0 | IC50 (HVA currents): > 100 µM; MBC (MRSA MW2 [2]; MRSA MW2): >64 µg/mL; IC50 (Cav3.1 T-type channels): 6.8 µM; Fractional Inhibitory Concentration (FIC) Index (MRSA-MW2; with Polymyxin B): 0.5; MIC ([8]; BF3, read-out: MIC): 4 µg/mL
3 | 8 (≈ 20.7 µM) | 8 (≈ 20.7 µM) | 8 (≈ 20.7 µM) | > 64 | > 64 | > 64 | 8 (≈ 20.7 µM) | 8 (≈ 20.7 µM) | > 64 | CCCc1c(-c2ccc(O)cc2)nn(-c2ccc(O)cc2)c1-c1ccc(O)cc1 [PPT, 4,4′,4″-(4-Propyl-[1H]-pyrazole-1,3,5-triyl)trisphenol] | 8 | 32 (≈ 82.8 µM) | 16 | 5.54 | increases in cellular fluorescence | 8 | 2 | 0.5 | 0.75 | 1.0 | 1.0 | MIC (MRSA MW2 [2]; [11]): 8 µg/mL (≈ 20.7 µM); Fractional Inhibitory Concentration (FIC) Index (MRSA-MW2; with Polymyxin B): 2.0; MIC ([8]; BF3, read-out: MIC): 8 µg/mL (≈ 20.7 µM)
4 |  |  |  |  |  |  |  |  |  | CN[C@H](CC(C)C)C(=O)N[C@H]1C(=O)N[C@@H](CC(N)=O)C(=O)N[C@H]2C(=O)N[C@H]3C(=O)N[C@H](C(=O)N[C@H](C(=O)O)c4cc(O)cc(O)c4-c4cc3ccc4O)[C@H](O)c3ccc(c(Cl)c3)Oc3cc2cc(c3O[C@@H]2O[C@H](CO)[C@@H](O)[C@H](O)[C@H]2O[C@H]2C[C@](C)(N)[C@H](O)[C@H](C)O2)Oc2ccc(cc2Cl)[C@H]1O [Vancomycin] |  |  |  |  |  |  |  |  |  |  |  | MIC [1]: 2 µg/mL (≈ 1.38 µM); MIC (Enterococcus faecium): 4 µg/mL (≈ 2.76 µM); MBC (MRSA MW2 [2]; Staphylococcus aureus, MRSA): 8 µg/mL (≈ 5.52 µM); MIC (MRSA MW2 [2]; Staphylococcus aureus, MRSA, 18 h): 1 µg/mL (≈ 0.69 µM); MIC (Enterobactor aerogens): > 64 µg/mL; MIC (Acinetobacter baumannii): > 64 µg/mL; MIC (Klebsiella pneumoniae): > 64 µg/mL; MIC [5]: 2 µg/mL (≈ 1.38 µM); MIC [6]: 2 µg/mL (≈ 1.38 µM); MIC (Pseudomonas aeruginosa): > 64 µg/mL; MIC [8]: 2 µg/mL (≈ 1.38 µM)
